Biological target: T1, PSD95-nNOS (GFP-PSD95 coupled to His-nNOS on magnetic Fe-MOF) (Rattus norvegicus (nNOS); Homo sapiens (PSD95), UniProt P29476+P78352)
T1 construct: gene Nos1; two-species complex; myc-His-nNOS (pcDNA3.1) and GFP-PSD95-Flag (pcDNA3.1), total synthesized genes, expressed in HEK293T, from RIPA lysates; His-nNOS immobilized on magnetic Fe-MOF, then GFP-PSD95 coupled
Experiment: uncoupling of GFP-PSD95 from His-nNOS/Fe-MOF, magnetic separation, fluorescence
Assay type: binding
Conditions: not given
Text: uncoupling of GFP-PSD95 from His-nNOS/Fe-MOF, magnetic separation, fluorescence on PSD95-nNOS (GFP-PSD95 coupled to His-nNOS on magnetic Fe-MOF)

T1 sequence (P29476 whole entry): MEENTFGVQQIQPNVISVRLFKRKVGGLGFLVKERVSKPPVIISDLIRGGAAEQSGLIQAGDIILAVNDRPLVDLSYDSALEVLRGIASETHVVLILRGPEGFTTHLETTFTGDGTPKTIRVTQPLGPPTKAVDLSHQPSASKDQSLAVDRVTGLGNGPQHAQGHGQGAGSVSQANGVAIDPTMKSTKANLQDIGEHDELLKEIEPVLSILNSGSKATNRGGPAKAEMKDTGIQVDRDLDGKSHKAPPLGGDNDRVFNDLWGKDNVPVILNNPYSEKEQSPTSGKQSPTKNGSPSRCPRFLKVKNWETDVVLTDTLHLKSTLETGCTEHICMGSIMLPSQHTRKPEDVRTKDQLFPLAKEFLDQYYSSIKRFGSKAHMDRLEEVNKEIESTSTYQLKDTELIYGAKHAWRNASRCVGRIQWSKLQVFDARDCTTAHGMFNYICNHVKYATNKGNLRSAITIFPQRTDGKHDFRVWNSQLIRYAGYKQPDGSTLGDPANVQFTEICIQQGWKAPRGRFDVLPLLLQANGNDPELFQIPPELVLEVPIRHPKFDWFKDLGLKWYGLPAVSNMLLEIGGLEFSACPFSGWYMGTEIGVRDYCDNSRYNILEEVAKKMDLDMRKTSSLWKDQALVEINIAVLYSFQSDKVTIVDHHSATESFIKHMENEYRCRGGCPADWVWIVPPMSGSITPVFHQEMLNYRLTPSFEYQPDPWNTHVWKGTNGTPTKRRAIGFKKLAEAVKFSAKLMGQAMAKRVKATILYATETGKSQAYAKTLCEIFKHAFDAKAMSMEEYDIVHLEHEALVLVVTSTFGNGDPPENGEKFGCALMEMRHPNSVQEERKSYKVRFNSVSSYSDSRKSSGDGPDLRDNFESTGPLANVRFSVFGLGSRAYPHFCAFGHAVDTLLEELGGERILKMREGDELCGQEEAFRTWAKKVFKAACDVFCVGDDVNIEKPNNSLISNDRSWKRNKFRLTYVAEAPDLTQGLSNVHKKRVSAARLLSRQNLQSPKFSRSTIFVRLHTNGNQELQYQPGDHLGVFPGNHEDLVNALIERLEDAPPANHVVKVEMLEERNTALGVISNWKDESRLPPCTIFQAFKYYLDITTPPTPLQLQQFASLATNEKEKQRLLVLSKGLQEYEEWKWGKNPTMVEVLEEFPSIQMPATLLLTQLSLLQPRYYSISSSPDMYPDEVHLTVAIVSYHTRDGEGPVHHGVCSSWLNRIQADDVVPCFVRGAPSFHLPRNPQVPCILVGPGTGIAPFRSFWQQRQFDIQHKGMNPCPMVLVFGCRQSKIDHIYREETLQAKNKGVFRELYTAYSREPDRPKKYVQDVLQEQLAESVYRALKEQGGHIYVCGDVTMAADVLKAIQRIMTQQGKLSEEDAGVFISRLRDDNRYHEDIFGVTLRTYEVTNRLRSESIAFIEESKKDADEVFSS
T1 sequence (P78352 whole entry): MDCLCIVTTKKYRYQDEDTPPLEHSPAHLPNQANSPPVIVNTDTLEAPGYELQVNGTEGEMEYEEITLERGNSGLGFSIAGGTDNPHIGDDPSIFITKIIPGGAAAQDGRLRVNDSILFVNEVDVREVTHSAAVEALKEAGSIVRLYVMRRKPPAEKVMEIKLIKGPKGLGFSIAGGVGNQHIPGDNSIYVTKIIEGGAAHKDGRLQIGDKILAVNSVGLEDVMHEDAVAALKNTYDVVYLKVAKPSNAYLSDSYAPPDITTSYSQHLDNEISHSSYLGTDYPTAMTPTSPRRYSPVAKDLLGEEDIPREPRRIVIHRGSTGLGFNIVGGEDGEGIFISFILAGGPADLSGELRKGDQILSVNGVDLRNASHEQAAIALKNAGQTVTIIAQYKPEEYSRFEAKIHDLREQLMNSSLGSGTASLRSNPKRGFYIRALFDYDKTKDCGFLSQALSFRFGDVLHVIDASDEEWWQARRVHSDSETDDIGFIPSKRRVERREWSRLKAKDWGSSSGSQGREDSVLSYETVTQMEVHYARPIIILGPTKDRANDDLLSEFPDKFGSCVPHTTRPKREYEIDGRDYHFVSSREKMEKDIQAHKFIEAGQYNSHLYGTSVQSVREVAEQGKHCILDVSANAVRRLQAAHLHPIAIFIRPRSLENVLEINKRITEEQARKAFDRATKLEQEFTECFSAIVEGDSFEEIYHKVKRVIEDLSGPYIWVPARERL

| SMILES | IC50 |
| --- | --- |
| O=C(O)c1ccc(NCc2cc(Cl)cc(Cl)c2O)cc1O [ZL006, 4-(3,5-Dichloro-2-hydroxy-benzylamino)-2-hydroxybenzoic acid, reference compound] | 1.8 ± 0.151 mM |
| O=C(O)[C@H]1O[C@@H](Oc2cc3oc(-c4ccccc4)cc(=O)c3c(O)c2O)[C@H](O)[C@@H](O)[C@@H]1O [compound 1, Baicalin] | 0.104 ± 0.001 mM |
| O=c1cc(-c2ccccc2)oc2cc(O)c(O)c(O)c12 [compound 2, Baicalein] | 0.144 ± 0.022 mM |
| COc1cc(/C=C/c2cc(O)cc(O)c2)ccc1O [compound 6, Isorhapontigenin] | > 1.8 mM |
| COc1cc2c[n+](C)c3c4cc5c(cc4ccc3c2cc1OC)OCO5 [compound 7, Nitidine chloride] | > 1.8 mM |
| COc1ccc2c(c[n+](C)c3c4cc5c(cc4ccc23)OCO5)c1OC [compound 8, Chelerythrine] | > 1.8 mM |
| COc1cc(O)c2c(c1)C(=O)c1cc(C)cc(O)c1C2=O [compound 9, Physcion] | > 1.8 mM |

Same assay, conditions: PBS pH 7.4, 0.1% DMSO, 4 °C, 5 h; immobilized nNOS; inhibition of PSD95-nNOS coupling, binding chain not told

| SMILES | IC50 |
| --- | --- |
| Oc1cc(O)cc(/C=C/c2c(O)cccc2O)c1 [compound 3, Gnetol] | 0.492 ± 0.063 mM |

From PMC9375364, “Fabrication of multifunctional metal–organic frameworks nanoparticles via layer-by-layer self-assembly to efficiently discover PSD95-nNOS uncouplers for stroke treatment” (Journal of Nanobiotechnology, 2022)
